Laboratory results as given in US11548913B2, “Therapeutic compositions including peptides and uses thereof” (Stealth BioTherapeutics Inc., priority 2015, dated 2023).
“Also recorded” adds a separate entry of the source. Square brackets hold non-standard residues; d marks the D form. Peptide text beside a SMILES is read from it. Dmt = Cc1cc(O)cc(C)c1C[C@H](N)C(=O)O; dOrn = NCCC[C@@H](N)C(=O)O

Tests used:
excised rat hearts = assay: Modified Langendorff rat heart model, peptide pre-treatment before ischemia/reperfusion (Example 2); details: hearts bathed 2 hours in 1 μM peptide before 20 min ischemia and 2 hours reperfusion; vs SBT-46, SBT-102 and controls; anticipated
Experimental: The Langendorff rodent heart model is widely employed in studies of myocardial function and responses to injury (e.g., ischemia). For whole-heart studies, male Sprague-Dawley rats (7-9 weeks old) are injected with pentobarbital (35 mg/kg, ip injection) and hearts are excised with midline thoracotomy. The aortas are secured around a cannula of a modified Langendorff apparatus and retrogradely perfused (perfusion pressure of 75 mm Hg) with a modified Krebs-Henseleit buffer containing (in mM): 118 NaCl, 24 NaHCO3, 4.75 KCl, 1.2 KH2PO4, 1.2 MgSO4, 2.0 CaCl2, and 10 glucose (gassed with 95/5% O2/CO2). Hearts are bathed in a buffer-filled perfusion chamber maintained at 37° C. for the duration of the experiments. Following the initiation of perfusion, hearts are instrumented for the simultaneous observation of mechanical and electrical function. A buffer-filled latex balloon (size 5, Harvard Apparatus, Holliston, Mass., USA), which is calibrated at the beginning of each day using a digital manometer, is inserted into the left ventricle (via the mitral valve) for the measurement of left ventricular developed pressure (LVDP), with balloon volume adjusted to establish a diastolic pressure of 5-8 mm Hg. Three electrodes are placed into the buffer filled perfusion chamber for the measurement of the volume-conducted electrocardiogram (ECG). Coronary flow rates are monitored constantly with a flow probe (Transconic Systems, Ithaca, N.Y., USA) connected in series with the perfusion line, and normalized to heart wet weight (in grams) at the end of each experiment. All physiological parameters are continuously monitored and stored on a personal computer using commercially available software (Chart, AD Instruments, Colorado Springs, Colo., USA). Heart rate is calculated using the LVDP trace, and maximal rates of contraction(+dP/dt) and relaxation (−dP/dt) are calculated using the derivative of the LVDP trace.
Prior to the initiation of ischemia/reperfusion, the excised rat hearts are bathed in buffer containing an experimental peptide at a concentration of 1 μM or buffer alone (control) for two hours. The experimental peptide is selected from D-Arg-D-Dmt-D-Lys-L-Phe-NH2 (SBT-46), D-Arg-L-DMT-L-Ala-L-Phe-NH2 (SBT-68), (Ac)-D-Arg-L-DMT-L-Lys-L-Phe-NH2 (SBT-85), D-Arg-L-Dmt-L-His-L-Phe-NH2(SBT-100), D-Arg-L-DMT-L-Orn-L-Phe-NH2 (SBT-102), D-Orn-L-DMT-L-Lys-L-Phe-NH2(SBT-131), D-(Amidine)Arg(propylamine)-L-DMT-L-Lys-L-Phe-NH2(SBT-140), and D-Arg(butylamidine analog)-L-DMT-L-Lys-L-Phe-NH2 (SBT-149). Following a 10 minute baseline period, ischemia/reperfusion is initiated. Hearts are exposed to global no-flow ischemia by stopping perfusion for 20 min. At the end of the index ischemia, static buffer from the perfusion lines is washed out (via an accessory port proximal to the aortic cannula), and reperfusion ensues for 2 hours with Krebs buffer. At the end of reperfusion, the left ventricle is dissected, sliced into 5 mm-thick slices, incubated in 1% triphenyltetrazolium chloride (TTC) for 10 min (37° C.) and digitally photographed for subsequent infarct size analysis. Infarct size is expressed as a percentage of the left ventricle (% area at risk (AAR))(calculated using ImageJ software, NIH, Bethesda, Md., USA).

[1] = system: Excised Sprague-Dawley rat hearts; assay: Modified Langendorff rat heart model, ischemia/reperfusion with peptide in the reperfusion buffer (Example 1); details: 1 μM peptide in Krebs buffer during 2 hours reperfusion after 20 min global no-flow ischemia; compared to controls
Experimental: The Langendorff rodent heart model is widely employed in studies of myocardial function and responses to injury (e.g., ischemia). For whole-heart studies, male Sprague-Dawley rats (7-9 weeks old) were injected with pentobarbital (35 mg/kg, ip injection) and hearts were excised with midline thoracotomy. The aortas were secured around a cannula of a modified Langendorff apparatus and retrogradely perfused (perfusion pressure of 75 mm Hg) with a modified Krebs-Henseleit buffer containing (in mM): 118 NaCl, 24 NaHCO3, 4.75 KCl, 1.2 KH2PO4, 1.2 MgSO4, 2.0 CaCl2, and 10 glucose (gassed with 95/5% O2/CO2). Hearts were bathed in a buffer-filled perfusion chamber maintained at 37° C. for the duration of the experiments. Following the initiation of perfusion, hearts were instrumented for the simultaneous observation of mechanical and electrical function. A buffer-filled latex balloon (size 5, Harvard Apparatus, Holliston, Mass., USA), calibrated at the beginning of each day using a digital manometer, was inserted into the left ventricle (via the mitral valve) for the measurement of left ventricular developed pressure (LVDP), with balloon volume adjusted to establish a diastolic pressure of 5-8 mm Hg. Three electrodes were placed into the buffer filled perfusion chamber for the measurement of the volume-conducted electrocardiogram (ECG). Coronary flow rates were monitored constantly with a flow probe (Transconic Systems, Ithaca, N.Y., USA) connected in series with the perfusion line, and normalized to heart wet weight (in grams) at the end of each experiment. All physiological parameters were continuously monitored and stored on a personal computer using commercially available software (Chart, AD Instruments, Colorado Springs, Colo., USA). Heart rate was calculated using the LVDP trace, and maximal rates of contraction(+dP/dt) and relaxation (−dP/dt) were calculated using the derivative of the LVDP trace.
Following a 10 minute baseline period, ischemia/reperfusion was initiated. Hearts were exposed to global no-flow ischemia by stopping perfusion for 20 min. At the end of the index ischemia, static buffer from the perfusion lines was washed out (via an accessory port proximal to the aortic cannula), and reperfusion ensued for 2 hours either with Krebs buffer alone (control) or Krebs buffer containing an experimental peptide at a concentration of 1 μM. Peptides tested included D-Arg-D-Dmt-D-Lys-L-Phe-NH2 (SBT-46), D-Arg-L-DMT-L-Ala-L-Phe-NH2 (SBT-68), (Ac)-D-Arg-L-DMT-L-Lys-L-Phe-NH2 (SBT-85), D-Arg-L-Dmt-L-His-L-Phe-NH2(SBT-100), D-Arg-L-DMT-L-Orn-L-Phe-NH2 (SBT-102), D-Orn-L-DMT-L-Lys-L-Phe-NH2(SBT-131), D-(Amidine)Arg(propylamine)-L-DMT-L-Lys-L-Phe-NH2 (SBT-140), and D-Arg(butylamidine analog)-L-DMT-L-Lys-L-Phe-NH2(SBT-149). At the end of reperfusion, the left ventricle was dissected, sliced into 5 mm-thick slices, incubated in 1% triphenyltetrazolium chloride (TTC) for 10 min (37° C.) and digitally photographed for subsequent infarct size analysis. Infarct size was expressed as a percentage of the left ventricle (% area at risk (AAR))(calculated using ImageJ software, NIH, Bethesda, Md., USA).

## Cc1cc(O)cc(C)c1C[C@H](NC(=O)[C@H](N)CCCN)C(=O)N[C@@H](CCCCN)C(=O)N[C@@H](Cc1ccccc1)C(N)=O [SBT-131, D-Orn-L-DMT-L-Lys-L-Phe-NH2] (H-[dOrn][Dmt]KF-NH2)
Excised rat hearts
  LVDP: increased LVDP
  infarct size: reduced infarct size
  maximal rates of contraction (+dP/dt): increased maximal rates of contraction
  maximal rates of relaxation (−dP/dt): increased maximal rates of relaxation
[1]
  attenuation of cardiac ischemia injury and ischemia-reperfusion injury: able to attenuate cardiac ischemia injury and ischemia-reperfusion injury; also recorded: attenuation of cardiac ischemia-reperfusion injury
  infarct size expressed as a percentage of area at risk (AAR): reduced infarct size
  left ventricular developed pressure (LVDP): increased LVDP
  maximal rates of contraction (+dP/dt): increased maximal rates of contraction
  maximal rates of relaxation (−dP/dt): increased maximal rates of relaxation

## Cc1cc(O)cc(C)c1C[C@H](NC(=O)[C@H](N)CCCCC(=N)N)C(=O)N[C@@H](CCCCN)C(=O)N[C@@H](Cc1ccccc1)C(N)=O [SBT-149, D-Arg(butylamidine analog)-L-DMT-L-Lys-L-Phe-NH2]
Excised rat hearts
  LVDP: increased LVDP
  infarct size: reduced infarct size
  maximal rates of contraction (+dP/dt): increased maximal rates of contraction
  maximal rates of relaxation (−dP/dt): increased maximal rates of relaxation
[1]
  attenuation of cardiac ischemia injury and ischemia-reperfusion injury: able to attenuate cardiac ischemia injury and ischemia-reperfusion injury; also recorded: attenuation of cardiac ischemia-reperfusion injury
  infarct size expressed as a percentage of area at risk (AAR): reduced infarct size
  left ventricular developed pressure (LVDP): increased LVDP
  maximal rates of contraction (+dP/dt): increased maximal rates of contraction
  maximal rates of relaxation (−dP/dt): increased maximal rates of relaxation

## Cc1cc(O)cc(C)c1C[C@H](NC(=O)[C@H](N)CCCNC(=N)N)C(=O)N[C@@H](C)C(=O)N[C@@H](Cc1ccccc1)C(N)=O [SBT-68, D-Arg-L-DMT-L-Ala-L-Phe-NH2] (H-[dR][Dmt]AF-NH2)
Excised rat hearts
  LVDP: increased LVDP
  infarct size: reduced infarct size
  maximal rates of contraction (+dP/dt): increased maximal rates of contraction
  maximal rates of relaxation (−dP/dt): increased maximal rates of relaxation
[1]
  attenuation of cardiac ischemia injury and ischemia-reperfusion injury: able to attenuate cardiac ischemia injury and ischemia-reperfusion injury; also recorded: attenuation of cardiac ischemia-reperfusion injury
  infarct size expressed as a percentage of area at risk (AAR): reduced infarct size
  left ventricular developed pressure (LVDP): increased LVDP
  maximal rates of contraction (+dP/dt): increased maximal rates of contraction
  maximal rates of relaxation (−dP/dt): increased maximal rates of relaxation

## Cc1cc(O)cc(C)c1C[C@H](NC(=O)[C@@H](CCCN)NC(=N)N)C(=O)N[C@@H](CCCCN)C(=O)N[C@@H](Cc1ccccc1)C(N)=O [SBT-140, D-(Amidine)Arg(propylamine)-L-DMT-L-Lys-L-Phe-NH2]
Excised rat hearts
  LVDP: increased LVDP
  infarct size: reduced infarct size
  maximal rates of contraction (+dP/dt): increased maximal rates of contraction
  maximal rates of relaxation (−dP/dt): increased maximal rates of relaxation
[1]
  attenuation of cardiac ischemia injury and ischemia-reperfusion injury: able to attenuate cardiac ischemia injury and ischemia-reperfusion injury; also recorded: attenuation of cardiac ischemia-reperfusion injury
  infarct size expressed as a percentage of area at risk (AAR): reduced infarct size
  left ventricular developed pressure (LVDP): increased LVDP
  maximal rates of contraction (+dP/dt): increased maximal rates of contraction
  maximal rates of relaxation (−dP/dt): increased maximal rates of relaxation

## Cc1cc(O)cc(C)c1C[C@H](NC(=O)[C@H](N)CCCNC(=N)N)C(=O)N[C@@H](Cc1cnc[nH]1)C(=O)N[C@@H](Cc1ccccc1)C(N)=O [SBT-100, D-Arg-L-Dmt-L-His-L-Phe-NH2] (H-[dR][Dmt]HF-NH2)
Excised rat hearts
  LVDP: increased LVDP
  infarct size: reduced infarct size
  maximal rates of contraction (+dP/dt): increased maximal rates of contraction
  maximal rates of relaxation (−dP/dt): increased maximal rates of relaxation
[1]
  attenuation of cardiac ischemia injury and ischemia-reperfusion injury: able to attenuate cardiac ischemia injury and ischemia-reperfusion injury; also recorded: attenuation of cardiac ischemia-reperfusion injury
  infarct size expressed as a percentage of area at risk (AAR): reduced infarct size
  left ventricular developed pressure (LVDP): increased LVDP
  maximal rates of contraction (+dP/dt): increased maximal rates of contraction
  maximal rates of relaxation (−dP/dt): increased maximal rates of relaxation

## D-Arg-L-Dmt-L-Orn-L-Phe-NH2 [SBT-102]
[1]
  attenuation of cardiac ischemia injury and ischemia-reperfusion injury: does not attenuate cardiac ischemia-reperfusion injury
  infarct size expressed as a percentage of area at risk (AAR): did not reduce infarct size
  left ventricular developed pressure (LVDP): did not reduce infarct size, increase LVDP
  maximal rates of contraction (+dP/dt): did not reduce infarct size, increase LVDP, or increase the maximal rates of contraction and relaxation
  maximal rates of relaxation (−dP/dt): did not reduce infarct size, increase LVDP, or increase the maximal rates of contraction and relaxation

## D-Arg-D-Dmt-D-Lys-L-Phe-NH2 [SBT-46]
[1]
  attenuation of cardiac ischemia injury and ischemia-reperfusion injury: does not attenuate cardiac ischemia-reperfusion injury
  infarct size expressed as a percentage of area at risk (AAR): did not reduce infarct size
  left ventricular developed pressure (LVDP): did not reduce infarct size, increase LVDP
  maximal rates of contraction (+dP/dt): did not reduce infarct size, increase LVDP, or increase the maximal rates of contraction and relaxation
  maximal rates of relaxation (−dP/dt): did not reduce infarct size, increase LVDP, or increase the maximal rates of contraction and relaxation
